As a reminder, the EC50 is the concentration that produces a half-maximal response.

The values that follow come from article PMC4297288, “Metal-assisted synthesis of unsymmetrical magnolol and honokiol analogs and their biological assessment as GABAA receptor ligands” (Bioorganic & Medicinal Chemistry Letters, 2015).

Like-named read-outs stand apart in the source and are kept apart here.

Common to all, as to type: cell-based
Assay [1] has as its target T1, α1β2γ2 GABAA receptor (β2 subunit) (Rattus norvegicus, UniProt P63138).
T1 construct: gene Gabrb2; recombinant α1β2γ2 receptor expressed in Xenopus laevis oocytes; with GABAA α1 (Gabra1) and γ2 (Gabrg2) subunits
In words: two-electrode voltage clamp, % IGABA at […] compound, GABA EC0.[…]. (In general: Two-electrode voltage clamp holds a large cell at a set potential and records current.)

The target of assay [2] is T2, α1β1γ2 GABAA receptor (β1 subunit) (Rattus norvegicus, UniProt P15431).
T2 construct: gene Gabrb1; recombinant α1β1γ2 receptor expressed in Xenopus laevis oocytes; with GABAA α1 (Gabra1) and γ2 (Gabrg2) subunits
The assay is described as follows: two-electrode voltage clamp, potentiation of IGABA at GABA EC10-20.

In assay [3] the target is T1, α1β2γ2 GABAA receptor (β2 subunit). The assay is described as above.

T1 sequence (P63138 26-474): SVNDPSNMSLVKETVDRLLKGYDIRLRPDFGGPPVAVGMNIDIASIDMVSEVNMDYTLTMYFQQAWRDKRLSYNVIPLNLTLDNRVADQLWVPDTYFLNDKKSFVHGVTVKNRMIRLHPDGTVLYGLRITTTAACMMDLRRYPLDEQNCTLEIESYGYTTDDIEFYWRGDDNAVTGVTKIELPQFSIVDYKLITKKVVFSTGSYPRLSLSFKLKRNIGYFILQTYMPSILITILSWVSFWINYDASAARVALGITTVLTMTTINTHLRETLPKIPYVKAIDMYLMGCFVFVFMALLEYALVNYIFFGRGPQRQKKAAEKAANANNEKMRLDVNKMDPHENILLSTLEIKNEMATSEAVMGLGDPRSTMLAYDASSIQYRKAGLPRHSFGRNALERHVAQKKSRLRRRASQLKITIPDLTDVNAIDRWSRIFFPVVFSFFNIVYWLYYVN
T1 sequence (P62813 28-455 partner): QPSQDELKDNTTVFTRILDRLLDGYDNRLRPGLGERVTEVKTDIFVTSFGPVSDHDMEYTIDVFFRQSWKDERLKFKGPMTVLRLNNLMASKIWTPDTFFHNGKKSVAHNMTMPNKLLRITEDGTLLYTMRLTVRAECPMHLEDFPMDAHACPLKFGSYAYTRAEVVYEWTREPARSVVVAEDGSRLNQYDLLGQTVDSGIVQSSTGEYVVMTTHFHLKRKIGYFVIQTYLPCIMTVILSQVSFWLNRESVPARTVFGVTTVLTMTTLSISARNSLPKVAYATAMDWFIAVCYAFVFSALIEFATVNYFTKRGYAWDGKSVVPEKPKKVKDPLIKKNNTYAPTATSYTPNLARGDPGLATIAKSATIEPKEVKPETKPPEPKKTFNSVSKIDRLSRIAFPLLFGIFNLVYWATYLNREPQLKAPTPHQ
T1 sequence (P18508 39-466 partner): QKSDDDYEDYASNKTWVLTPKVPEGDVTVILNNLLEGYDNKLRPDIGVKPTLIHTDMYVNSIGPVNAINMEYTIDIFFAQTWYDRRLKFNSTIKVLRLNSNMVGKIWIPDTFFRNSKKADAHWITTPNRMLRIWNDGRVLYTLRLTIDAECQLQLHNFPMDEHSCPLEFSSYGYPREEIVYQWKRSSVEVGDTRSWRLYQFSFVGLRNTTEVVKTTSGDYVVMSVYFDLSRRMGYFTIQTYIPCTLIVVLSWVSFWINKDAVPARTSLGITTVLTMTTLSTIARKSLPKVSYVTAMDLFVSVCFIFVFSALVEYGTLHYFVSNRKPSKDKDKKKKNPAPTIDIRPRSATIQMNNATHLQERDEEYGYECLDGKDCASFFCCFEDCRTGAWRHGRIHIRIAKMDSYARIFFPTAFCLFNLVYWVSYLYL
T2 sequence (P15431 26-474): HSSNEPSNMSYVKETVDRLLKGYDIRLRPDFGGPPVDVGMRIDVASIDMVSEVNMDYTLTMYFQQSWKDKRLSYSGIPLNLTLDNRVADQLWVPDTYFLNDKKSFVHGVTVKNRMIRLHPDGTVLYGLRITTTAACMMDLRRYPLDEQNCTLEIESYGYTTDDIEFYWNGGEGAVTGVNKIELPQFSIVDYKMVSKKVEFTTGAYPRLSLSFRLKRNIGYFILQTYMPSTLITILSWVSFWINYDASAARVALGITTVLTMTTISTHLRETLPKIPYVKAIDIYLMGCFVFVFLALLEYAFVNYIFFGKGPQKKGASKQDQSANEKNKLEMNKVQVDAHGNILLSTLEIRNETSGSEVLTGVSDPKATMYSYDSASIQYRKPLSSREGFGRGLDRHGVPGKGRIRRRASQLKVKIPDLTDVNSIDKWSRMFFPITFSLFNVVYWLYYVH
T2 sequence (P62813 28-455 partner): as the sequence (P62813 28-455 partner) above
T2 sequence (P18508 39-466 partner): as the sequence (P18508 39-466 partner) above

With `C=CCc1ccc(O)c(-c2ccccc2C)c1` [8b], the activation at 3 µM in assay [1] was determined as 207 ± 33%.
Still for that read-out and setting: in the case of `C=CCc1ccc(O)c(-c2cccc(OC)c2)c1` [8f] it was 136 ± 32%.
As to `C=CCc1ccc(O)c(-c2ccc(OC)cc2)c1` [8g], the results for the concentration for a half-maximal effect (EC50) in assay [2] (read-out: EC50) and in assay [3] (read-out: EC50) were 30 µM and approximately 7 µM, respectively.
In turn, `C=CCc1ccc(O)c(-c2cccc(C(=O)OC)c2)c1` [8i] had an activation at 3 µM in assay [1] of 406 ± 70%.
Turning to `C=CCc1ccc(O)c(-c2cc(CC=C)ccc2O)c1` [compound 1, magnolol], the activation at 3 µM in assay [1] came out at 338 ± 93%.
Take `C=CCc1ccc(O)c(-c2ccc(O)c(CC=C)c2)c1` [compound 2, honokiol]: the concentration for a half-maximal effect (EC50) in assay [2] and in assay [3] was 20 µM in each case.
